# Laboratory results: US10647687B2, “Spiropyrazine derivatives as inhibitors of non-apoptotic regulated cell-death” (Helmholtz Zentrum München Deutsches Forschungszentrum für …, priority 2014, dated 2020)
# Tested on: Pfa1 cells
# Assay: Inhibition of non-apoptotic cell death after tamoxifen-induced GPx4 knockout (Pfa1/TAM, Example B.4)
# Assay type: cell-based, mouse
# Conditions: Mus musculus, methylated analogues of C-2
# Description: To combat high intracellular ROS levels, mammalian cells have evolved an intricate network of ROS scavenging in cells, in which the thioredoxin and glutathione (GSH) dependent systems prevail. […] Knockout of GPx4 in neurons causes massive neurodegeneration in cortical, cerebellar and hippocampal neurons underscoring the high relevance of ROS-induced cell death signaling in the brain. Briefly, immortalised fibroblasts from these mice were made to contain tamoxifen-inducible CreERT2, which catalyzes the functional ablation of both copies of GPx4 and resulting in a complete knockout of GPx4, a massive ROS burst, and cell death in cell culture. These cells (Pfa1 cells) were used to characterize compounds disclosed herein, whereby tamoxifen (TAM) was given on day 0 along with the compound under test, and 72 hours later cell survival was evaluated using AlamarBlue.
row,SMILES,IC50
1,CN1/C(=N/Cc2cccc(Cl)c2)C2(CCCCC2)N(C)c2ccccc21 [C-2-2Me],> 10 µM
2,Clc1cccc(CNC2=Nc3ccccc3NC23CCCCC3)c1 [C-2],< 0.01 µM

# Same assay, conditions: Mus musculus, tamoxifen on day 0, cell survival after 72 hours
row,SMILES,IC50
1,CC(C)CCNC1=Nc2ccccc2NC12CCCCCC2 [D-1],< 2 µM
2,c1ccc2c(c1)CCC2NC1=Nc2ccccc2NC12CCCCC2 [D-2],< 2 µM
3,c1ccc2c(c1)CCC2NC1=Nc2ccccc2NC12CCOCC2 [D-3],< 2 µM
4,c1ccc2c(c1)CCCC2NC1=Nc2ccccc2NC12CCCCC2 [D-4],< 0.2 µM
5,c1ccc2c(c1)CCC2NC1=Nc2ccccc2NC12CCNCC2 [D-5],< 0.1 µM
6,c1ccc2c(c1)N=C(NCCc1c[nH]c3ccccc13)C1(CCNCC1)N2 [D-6],< 0.1 µM
7,c1ccc2c(c1)CCCC2NC1=Nc2ccccc2NC12CCNCC2 [D-7],< 0.1 µM
8,Clc1cccc(CNC2=Nc3ccccc3NC23CC2CCC(C3)N2)c1 [D-8],< 0.05 µM
9,c1ccc(CNC2=Nc3ccccc3NC23CC2CCC(C3)N2)cc1 [D-9],< 0.5 µM
10,Clc1cccc(CNC2=Nc3ncccc3NC23CCCCC3)c1 [D-10],< 5 µM
11,Clc1cccc(CNC2=Nc3cc(Cl)ncc3NC23CCCCC3)c1 [D-11],< 5 µM
12,c1csc(CNC2=Nc3ccccc3NC23CCCCC3)c1 [D-12],< 5 µM
13,c1cncc(CNC2=Nc3ccccc3NC23CCCCC3)c1 [D-13],< 5 µM
14,CCOC(=O)c1ccc2c(c1)N=C(NC1CCCCC1)C1(CCCCC1)N2 [D-14],< 1 µM
15,CC(C)(C)NC1=Nc2ccccc2NC12CCOCC2 [D-15],< 5 µM
16,CC(C)(C)NC1=Nc2ccccc2NC12CCSCC2 [D-16],< 1 µM
17,Cc1cc(CNC2=Nc3ccccc3NC23CCCCC3)on1 [D-17],< 5 µM
18,Clc1cc2c(cc1Cl)NC1(CCCCC1)C(NCc1cccnc1)=N2 [D-19],< 0.5 µM
19,c1ccc2c(c1)N=C(NCc1nccs1)C1(CCCCC1)N2 [D-20],< 5 µM
20,Clc1cc2c(cc1Cl)NC1(CCCCC1)C(NCc1cccs1)=N2 [D-21],< 0.5 µM
21,c1ccc2c(c1)N=C(NCc1cncs1)C1(CCCCC1)N2 [D-22],< 5 µM
22,c1coc(CNC2=Nc3ccccc3NC23CCCCC3)c1 [D-23],< 5 µM
23,c1ccc2c(c1)N=C(NCc1ccncc1)C1(CCCCC1)N2 [D-24],< 5 µM
24,c1csc(CNC2=Nc3ccccc3NC23CCNCC3)c1 [D-181],< 0.5 µM
25,CN1CCC2(CC1)Nc1cc(Cl)c(Cl)cc1N=C2NCc1cccc(Cl)c1 [F-24],< 0.05 µM
26,C#CCCCCCCCCC(=O)N1CCC2(CC1)Nc1ccccc1N=C2NCc1cccc(Cl)c1 [F-25],< 0.2 µM
27,C#CCCCCCCCCC(=O)N1CCC2(CC1)Nc1cc(Cl)c(Cl)cc1N=C2NCc1cccc(Cl)c1 [F-26],< 0.2 µM

# Same assay, conditions: methylated analogues of C-2
row,SMILES,IC50
1,CN1c2ccccc2N=C(NCc2cccc(Cl)c2)C12CCCCC2 [C-2-Me-I],> 10 µM

# Tested on: SH-SY5Y cells
# Assay: Specificity: TNF-alpha-induced apoptosis in SH-SY5Y cells (Example B.3)
# Assay type: cell-based, human
# Conditions: compound 1 μM, TNF-alpha 10 ng/mL, FIG. 1
# Method: SH-SY5Y cells were propagated and seeded in 96-well plates, together with compound N-1, N-2, N-10 of Table 1-N (FIG. 1A), compound O/S-6 or O/S-3 of Table 1-O/S (FIG. 1B), or compound C-12, C-91, or C-205 of Table 1-C (FIG. 1C) (each 1 μM) and TNF-alpha was added (final concentration: 10 ng/mL) to induce apoptosis. The apoptosis and pan-caspase inhibitor z-vad (final concentration: 50 μM) and the necroptosis inhibitor Necrostatin-1 (Nec-1; final concentration: 5 μM) were used for comparison. Control wells were established with vehicle only (DMSO), with and without treatment with TNF-alpha to induce apoptosis. Cells were incubated, and cell survival was detected and quantified. Percentage cell survival after TNF-alpha-induced apoptosis is shown (error bars indicate standard deviation (SD)).
# Briefly, SH-SY5Y cells were propagated and seeded in 96-well plates, together with the compound to be tested (1 μM), generally as described in Example B.1, except they were seeded at 1,000 cell/well and instead of BSO, TNF-alpha (Invitrogen) was added to a final concentration of 10 ng/mL to induce apoptosis. The apoptosis and pan-caspase inhibitor Z-VAD-fink (Enzo Life Science; final concentration 50 μM) and the necroptosis inhibitor Necrostatin-1 (Nec-1; Enzo Life Science; final concentration 5 μM) were used for comparison. Control wells were established with vehicle only (DMSO), with and without treatment with TNF-alpha to induce apoptosis. Cells were incubated, and cell survival was detected and quantified as described in Example B.1.
row,SMILES,Percentage cell survival after TNF-alpha-induced apoptosis
1,CC1CCC2(CC1)Nc1ccccc1N=C2NCc1ccccc1Cl (stereo not shown) [C-91],Non-inhibition of apoptotic cell-death
2,Clc1ccccc1CNC1=Nc2ccccc2NC12CCCCCC2 [C-205],Non-inhibition of apoptotic cell-death
3,Clc1ccccc1CNC1=Nc2ccccc2NC12CCNCC2 [N-1],Non-inhibition of apoptotic cell-death
4,Clc1ccc(CNC2=Nc3ccccc3NC23CCOCC3)cc1 [O/S-3],Non-inhibition of apoptotic cell-death

# Tested on: not listed separately
# Assay: Cellular toxicity, Pfa1 cells without TAM (Example B.5)
# Assay type: cell-based
# Conditions: mouse, * not tested at higher concentrations, read-out: TC50 (the source's name)
# Description: An estimate of the toxicity for compounds disclosed herein was obtained by using the same assay as described in Example B.4, but without the addition of TAM. […] Such TC50 values obtained for certain compounds disclosed herein, together with an approximate therapeutic window (estimated by dividing each TC50 by the corresponding IC50 determined from example B.4) are shown in Table 3 and Table 4.
row,SMILES,CC50
1,CC(C)CCNC1=Nc2ccccc2NC12CCCCCC2 [D-1],10 to 50 µM
2,c1ccc2c(c1)CCC2NC1=Nc2ccccc2NC12CCCCC2 [D-2],10 to 50 µM
3,c1ccc2c(c1)CCC2NC1=Nc2ccccc2NC12CCOCC2 [D-3],50 to 100 µM
4,c1ccc2c(c1)CCCC2NC1=Nc2ccccc2NC12CCCCC2 [D-4],20 to 50 µM
5,c1ccc2c(c1)CCC2NC1=Nc2ccccc2NC12CCNCC2 [D-5],5 to 10 µM
6,c1ccc2c(c1)N=C(NCCc1c[nH]c3ccccc13)C1(CCNCC1)N2 [D-6],5 to 10 µM
7,c1ccc2c(c1)CCCC2NC1=Nc2ccccc2NC12CCNCC2 [D-7],10 to 20 µM
8,Clc1cccc(CNC2=Nc3ccccc3NC23CC2CCC(C3)N2)c1 [D-8],2 to 5 µM
9,c1ccc(CNC2=Nc3ccccc3NC23CC2CCC(C3)N2)cc1 [D-9],5 to 10 µM
10,Clc1cccc(CNC2=Nc3ncccc3NC23CCCCC3)c1 [D-10],1 to 5 µM
11,Clc1cccc(CNC2=Nc3cc(Cl)ncc3NC23CCCCC3)c1 [D-11],10 to 50 µM
12,c1csc(CNC2=Nc3ccccc3NC23CCCCC3)c1 [D-12],10 to 50 µM
13,c1cncc(CNC2=Nc3ccccc3NC23CCCCC3)c1 [D-13],50 to 100 µM
14,CCOC(=O)c1ccc2c(c1)N=C(NC1CCCCC1)C1(CCCCC1)N2 [D-14],10 to 50 µM
15,CC(C)(C)NC1=Nc2ccccc2NC12CCOCC2 [D-15],50 to 100 µM
16,CC(C)(C)NC1=Nc2ccccc2NC12CCSCC2 [D-16],> 5 µM
17,Cc1cc(CNC2=Nc3ccccc3NC23CCCCC3)on1 [D-17],> 50 µM
18,Clc1cc2c(cc1Cl)NC1(CCCCC1)C(NCc1cccnc1)=N2 [D-19],10 to 50 µM
19,c1ccc2c(c1)N=C(NCc1nccs1)C1(CCCCC1)N2 [D-20],> 50 µM
20,Clc1cc2c(cc1Cl)NC1(CCCCC1)C(NCc1cccs1)=N2 [D-21],5 to 10 µM
21,c1ccc2c(c1)N=C(NCc1cncs1)C1(CCCCC1)N2 [D-22],> 50 µM
22,c1coc(CNC2=Nc3ccccc3NC23CCCCC3)c1 [D-23],> 50 µM
23,c1ccc2c(c1)N=C(NCc1ccncc1)C1(CCCCC1)N2 [D-24],> 50 µM
24,c1csc(CNC2=Nc3ccccc3NC23CCNCC3)c1 [D-181],20 to 50 µM
25,CN1CCC2(CC1)Nc1cc(Cl)c(Cl)cc1N=C2NCc1cccc(Cl)c1 [F-24],0.2 to 0.5 µM
26,C#CCCCCCCCCC(=O)N1CCC2(CC1)Nc1ccccc1N=C2NCc1cccc(Cl)c1 [F-25],10 to 20 µM
27,C#CCCCCCCCCC(=O)N1CCC2(CC1)Nc1cc(Cl)c(Cl)cc1N=C2NCc1cccc(Cl)c1 [F-26],10 to 20 µM

# Tested on: mouse hippocampal cell line (Ht22)
# Assay: Inhibition of glutamate-induced non-apoptotic cell death (Ht22/GLU, Example B.2)
# Assay type: cell-based
# Conditions: HT-22, 5 mM glutamate, 72 hours, cell survival, read-out: Ht22/GLU
# Description: Glutamate toxicity is conferred on cells from the mouse hippocampal cell line (Ht22) by inhibition of the cysteine/glutamate antiporter, System xc-, leading to impaired cysteine uptake and subsequent GSH depletion. This model is frequently used for mimicking glutathione depletion following oxidative stress in stroke, brain trauma and other neurodegenerative diseases and cellular conditions following ischemia (for example: van Leyen et al, J. Neurochem. 92:824-30 (2005)).
# Compounds disclosed herein were evaluated for their ability to promote cell survival upon administration of a lethal dose of glutamate (GLU) to the cell-culture medium.
# Briefly, Ht22cells (ATCC or Invitrogen) were propagated DMEM supplemented with 10% FBS/1% Penicillin-Streptomycin, and then seeded onto 96-well plates at a concentration of 2,000 cells/well in 100 μL of MEDIA, simultaneously with glutamate (Sigma Aldrich) to a final concentration of 5 mM, together with increasing concentrations of the compound to be tested (0.5 pM to 100 μM), and the plates incubated at 37° C./5% CO2 for 72 hours. Compound dilutions were prepared from 10 mM stocks dissolved in DMSO and diluted in media. Cells treated with glutamate alone were used as negative control and alpha-tocopherol (Sigma Aldrich) was used as positive control. Compound concentrations were tested in triplicate. After incubation, cell survival was detected and quantified as described in Example B.1.
row,SMILES,IC50
1,CC(C)CCNC1=Nc2ccccc2NC12CCCCCC2 [D-1],< 1 µM
2,c1ccc2c(c1)CCC2NC1=Nc2ccccc2NC12CCCCC2 [D-2],< 1 µM
3,c1ccc2c(c1)CCC2NC1=Nc2ccccc2NC12CCOCC2 [D-3],< 5 µM
4,c1ccc2c(c1)CCCC2NC1=Nc2ccccc2NC12CCCCC2 [D-4],< 0.5 µM
5,c1ccc2c(c1)CCC2NC1=Nc2ccccc2NC12CCNCC2 [D-5],< 0.2 µM
6,c1ccc2c(c1)N=C(NCCc1c[nH]c3ccccc13)C1(CCNCC1)N2 [D-6],< 0.5 µM
7,c1ccc2c(c1)CCCC2NC1=Nc2ccccc2NC12CCNCC2 [D-7],< 0.2 µM
8,Clc1cccc(CNC2=Nc3ncccc3NC23CCCCC3)c1 [D-10],< 5 µM
9,Clc1cccc(CNC2=Nc3cc(Cl)ncc3NC23CCCCC3)c1 [D-11],< 5 µM
10,c1csc(CNC2=Nc3ccccc3NC23CCCCC3)c1 [D-12],< 1 µM
11,c1cncc(CNC2=Nc3ccccc3NC23CCCCC3)c1 [D-13],< 5 µM
12,CCOC(=O)c1ccc2c(c1)N=C(NC1CCCCC1)C1(CCCCC1)N2 [D-14],< 0.5 µM
13,CC(C)(C)NC1=Nc2ccccc2NC12CCOCC2 [D-15],< 5 µM
14,CC(C)(C)NC1=Nc2ccccc2NC12CCSCC2 [D-16],< 1 µM
15,Cc1cc(CNC2=Nc3ccccc3NC23CCCCC3)on1 [D-17],< 2 µM
16,Clc1cc2c(cc1Cl)NC1(CCCCC1)C(NCc1cccnc1)=N2 [D-19],< 0.05 µM
17,c1ccc2c(c1)N=C(NCc1nccs1)C1(CCCCC1)N2 [D-20],< 2 µM
18,Clc1cc2c(cc1Cl)NC1(CCCCC1)C(NCc1cccs1)=N2 [D-21],< 0.2 µM
19,c1ccc2c(c1)N=C(NCc1cncs1)C1(CCCCC1)N2 [D-22],< 5 µM
20,c1coc(CNC2=Nc3ccccc3NC23CCCCC3)c1 [D-23],< 5 µM
21,c1ccc2c(c1)N=C(NCc1ccncc1)C1(CCCCC1)N2 [D-24],< 5 µM
22,c1csc(CNC2=Nc3ccccc3NC23CCNCC3)c1 [D-181],< 0.1 µM
23,CN1CCC2(CC1)Nc1cc(Cl)c(Cl)cc1N=C2NCc1cccc(Cl)c1 [F-24],< 0.02 µM
24,C#CCCCCCCCCC(=O)N1CCC2(CC1)Nc1ccccc1N=C2NCc1cccc(Cl)c1 [F-25],< 0.2 µM
25,C#CCCCCCCCCC(=O)N1CCC2(CC1)Nc1cc(Cl)c(Cl)cc1N=C2NCc1cccc(Cl)c1 [F-26],< 0.2 µM

# Same assay, conditions: HT-22, 72 h, read-out: Ht22/GLU [μM]
row,SMILES,IC50
1,Clc1cccc(CNC2=Nc3ccccc3NC23CC2CCC(C3)N2)c1 [D-8],< 0.05 µM
2,c1ccc(CNC2=Nc3ccccc3NC23CC2CCC(C3)N2)cc1 [D-9],< 0.5 µM
